Read-outs that look alike come from different tables or passages of the source.
Legend:
[1] = biological target: GST-tagged K-Ras mutant / His-tagged hSOS1 (Homo sapiens, UniProt P01116); experiment: HTRF assay, K-Ras mutant / SOS1 interaction; assay type: binding; settings: read-out: IC50 against mutant Kras
Summary of the method: (§1)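 Inhibition of wildtype or mutant K-Ras binding to hSOS1 is measured by FRET between antibody-bound Eu donor and XL665 acceptor. Protein levels are matched to the IC50 range under study. The 665/620 nm signal after ≥10 min yields IC50.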

wildtype Kras / hSOS1 = biological target: T1, wildtype Kras / hSOS1 (Homo sapiens, UniProt P01116); experiment: HTRF assay, wildtype Kras / SOS1 interaction; assay type: binding; settings: read-out: IC50 against wildtype Kras
T1 construct: made in house; host or cells: E. coli BL21 (DE3)
T1 sequence (P01116 1-188 isoform P01116-2): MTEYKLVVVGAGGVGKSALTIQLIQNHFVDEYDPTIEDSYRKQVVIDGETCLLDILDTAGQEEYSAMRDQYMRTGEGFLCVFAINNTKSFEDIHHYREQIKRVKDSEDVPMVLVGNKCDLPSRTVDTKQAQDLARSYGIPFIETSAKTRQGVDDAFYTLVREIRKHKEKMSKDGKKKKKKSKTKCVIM
Summary of the method: as §1

[2] = compound nos. 102-196, general methodology of example 5

Sequence of GST-tagged K-Ras mutant / His-tagged hSOS1 (P01116 whole entry G12D, form open): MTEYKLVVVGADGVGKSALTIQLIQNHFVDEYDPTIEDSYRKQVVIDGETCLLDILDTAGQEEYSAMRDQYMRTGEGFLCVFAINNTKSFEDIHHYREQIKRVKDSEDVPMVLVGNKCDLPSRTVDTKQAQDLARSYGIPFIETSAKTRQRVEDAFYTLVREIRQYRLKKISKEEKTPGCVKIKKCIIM

SMILES | IC50 ([1]; compound nos. 401-703) | IC50 (wildtype Kras / hSOS1; compound nos. 401-703) | further results
Fc1c(-c2cccc3ccsc23)c(Cl)cc2c(N3CC4CCC(C3)N4)nc(OC[C@@]34CCCN3C[C@H](F)C4)nc12 [Compound 560, 7-(benzo[b]thiophen-7-yl)-4-(3,8-diazabicyclo[3.2.1]-octan-3-yl)-6-chloro-8-fluoro-2-(((2R,7aS)-2-fluorotetrahydro-1H-pyrrol-izin-7a(5H)-yl)methoxy)-quinazoline] | > 500 nM | > 500 nM | 
Nc1nc2c(-c3c(Cl)cc4c(N5CCNCC(F)(F)C5)ncnc4c3F)cccc2s1 [Compound 110, 4-(6-chloro-4-(6,6-difluoro-1,4-diazepan-1-yl)-8-fluoro-quinazolin-7-yl)benzo[d]-thiazol-2-amine] |  |  | IC50 [1, 2]: > 500 nM; IC50 (wildtype Kras / hSOS1; [2]): > 500 nM
Nc1nc2c(-c3c(Cl)cc4c(N5C6CCCC5CNC6)nc(OC[C@@]56CCCN5C[C@H](F)C6)nc4c3F)ccc(F)c2s1 [Compound 302, 4-(4-(3,9-diazabicyclo-[3.3.1]nonan-9-yl)-6-chloro-8-fluoro-2-(((2R,7aS)-2-fluorotetrahydro-1H-pyrrolizin-7a(5H)-yl)meth-oxy)quinazolin-7-yl)-7-fluorobenzo[d]thiazol-2-amine] |  |  | IC50 ([1]; compound nos. 301-306): < 1500 nM; IC50 (wildtype Kras / hSOS1; compound nos. 301-306): < 1500 nM
Nc1nc2c(-c3c(Cl)cc4c(N5CCN(Cc6cncnc6)CC(F)(F)C5)nc(OC[C@@]56CCCN5C[C@H](F)C6)nc4c3F)ccc(F)c2s1 [Compound 649, 4-(6-chloro-4-(6,6-difluoro-4-(pyrimidin-5-ylmethyl)-1,4-diazepan-1-yl)-8-fluoro-2-(((2R,7aS)-2-fluorotetra-hydro-1H-pyrrolizin-7a(5H)-yl)methoxy)quinazolin-7-yl)-7-fluorobenzo[d]thiazol-2-amine] | < 500 nM | > 500 nM | 
Fc1ccc(-c2c(Cl)cc3c(N4CC5CCC(C4)N5)nc(OC[C@@]45CCCN4C[C@H](F)C5)nc3c2F)c2c1CCCC2 [Compound 689, 4-(3,8-diazabicyclo[3.2.1]-octan-3-yl)-6-chloro-8-fluoro-7-(4-fluoro-5,6,7,8-tetrahydronaphthalen-1-yl)-2-(((2R,7aS)-2-fluorotetra-hydro-1H-pyrrolizin-7a(5H)-yl)methoxy)quinazoline] | > 500 nM | > 500 nM | 
CN1CCC[C@H]1COc1nc(N2CCN(C(=O)CN)CC(F)(F)C2)c2cc(Cl)c(-c3cccc4sc(N)nc34)c(F)c2n1 [Compound 141, 2-amino-1-(4-(7-(2-amino-benzo[d]thiazol-4-yl)-6-chloro-8-fluoro-2-(((S)-1-methylpyrrolidin-2-yl)meth-oxy)quinazolin-4-yl)-6,6-difluoro-1,4-diazepan-1-yl)-ethan-1-one] |  |  | IC50 [1, 2]: > 500 nM; IC50 (wildtype Kras / hSOS1; [2]): < 500 nM

More lines, main results first:

IC50 ([1]; compound nos. 401-703) | IC50 (wildtype Kras / hSOS1; compound nos. 401-703) | SMILES | further results
< 500 nM | < 500 nM | Nc1nc2c(-c3c(Cl)cc4c(N5CCC6CCC(C5)N6)nc(OCC56CCCN5CCC6)nc4c3F)ccc(F)c2s1 (stereo not drawn) [Compound 494, 4-(4-(3,9-diazabicyclo-[4.2.1]nonan-3-yl)-6-chloro-8-fluoro-2-((tetrahydro-1H-pyrrolizin-7a(5H)-yl)meth-oxy)quinazolin-7-yl)-7-fluorobenzo[d]thiazol-2-amine] | 
< 500 nM | > 500 nM | CN1CCC[C@H]1COc1nc(N2CCCC(F)C(F)C2)c2cc(Cl)c(-c3cccc4sc(N)nc34)c(F)c2n1 (stereo partly drawn) [Compound 573, 4-(6-chloro-4-(3,4-difluoro-azepan-1-yl)-8-fluoro-2-(((S)-1-methylpyrrolidin-2-yl)methoxy)quinazolin-7-yl)-benzo[d]thiazol-2-amine] | 
< 500 nM | < 500 nM | N#CC1CCCN(c2nc(OC[C@@]34CCCN3C[C@H](F)C4)nc3c(F)c(-c4ccc(F)c5sc(N)nc45)c(Cl)cc23)CC1 (stereo partly drawn) [Compound 433, 1-(7-(2-amino-7-fluoro-benzo[d]thiazol-4-yl)-6-chloro-8-fluoro-2-(((2R,7aS)-2-fluorotetra-hydro-1H-pyrrolizin-7a(5H)-yl)methoxy)quin-azolin-4-yl)azepane-4-carbonitrile] | 

— US20240254129A1, “HETEROCYCLIC COMPOUNDS AND USES THEREOF” (Kumquat Biosciences Inc., priority 2021, published 2024)
